# Assays:
# PD-1/PD-L1 = PD-1/PD-L1 (Homo sapiens, UniProt Q9NZQ7); experiment: PD-1/PD-L1 biochemical protein-protein interaction assay (ALPHA); type: binding; conditions: 0.3 nM His tagged PD-L1, 2.5 nM biotinylated Fc-PD-1, 60 minutes at 25° C., read-out: IC50 PD-L1-PD-1 Alpha IC50-mono PD-L1-fcP-D1
# Procedure, shortened: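 ALPHA bead proximity assay of extracellular domains: 0.3 nM His-PD-L1 with 2.5 nM biotinylated Fc-PD-1 in 25 mM Hepes pH 7.4, 150 mM NaCl, 3.4 mM EDTA, 0.005% Tween 20, 0.01% BSA, 60 min at 25 °C. Anti-His acceptor and streptavidin donor beads added; IC50 from four-parameter fit of signal loss.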
# PD-1/PD-L1 interaction = biological target: T1, PD-1/PD-L1 interaction (Homo sapiens, UniProt Q9NZQ7); experiment: PD-1/PD-L1 NFAT reporter co-culture assay; type: cell-based; conditions: Jurkat PD-1 NFAT-luciferase cells co-cultured with aAPC-PD-L1 CHO cells, 6 hrs at 37° C.; read-out: EC50 NFAT Luciferase
# T1 construct: expressed in transfected cells; host or cells: CHO cells (aAPC-PD-L1) co-cultured with Jurkat cells overexpressing PD-1 and an NFAT-luciferase reporter
# Procedure, shortened: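 Jurkat cells overexpressing PD-1 with NFAT-luciferase mixed with compounds and plated onto CHO aAPCs expressing anti-CD3 and PD-L1, RPMI with 2% FBS. Co-culture 6 h at 37 °C; luminescence read with ONE-Glo. EC50 from four-parameter fit.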
# PD-L1 = biological target: T2, PD-L1 (Homo sapiens, UniProt Q9NZQ7); experiment: PD-L1/PD-L1 dimerization biochemical protein-protein interaction assay (ALPHA); type: binding; conditions: compound-induced PD-L1 dimerization, head prints '1 nM' (0.5 nM His-tagged PD-L1 and 0.5 nM FLAG-tagged PD-L1), read-out: AC50 PDL1 Dimer Alpha 1 nM
# T2 construct: determine if they can specifically dimerize the extracellular domains of PD-L1
# Procedure, shortened: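 ALPHA proximity assay of compound-induced dimerization of 0.5 nM His-tagged and 0.5 nM FLAG-tagged PD-L1 extracellular domains in Hepes pH 7.4 buffer, 2 h at 25 °C. Anti-His acceptor then anti-FLAG donor beads, 60 min each; AC50 from four-parameter fit.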
# Chain of PD-1/PD-L1 (Q9NZQ7 19-238 limits assumed): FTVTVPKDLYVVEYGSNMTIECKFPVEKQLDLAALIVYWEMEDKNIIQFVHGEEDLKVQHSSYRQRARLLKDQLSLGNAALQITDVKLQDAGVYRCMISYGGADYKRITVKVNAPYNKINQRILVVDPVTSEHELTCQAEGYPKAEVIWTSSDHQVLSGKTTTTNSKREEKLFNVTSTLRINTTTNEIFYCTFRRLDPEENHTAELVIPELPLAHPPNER
# T2 sequence (Q9NZQ7 19-238 limits assumed): as above
# T2 sequence (Q9NZQ7 19-238 limits assumed): as above
# T1 sequence (Q9NZQ7 19-290): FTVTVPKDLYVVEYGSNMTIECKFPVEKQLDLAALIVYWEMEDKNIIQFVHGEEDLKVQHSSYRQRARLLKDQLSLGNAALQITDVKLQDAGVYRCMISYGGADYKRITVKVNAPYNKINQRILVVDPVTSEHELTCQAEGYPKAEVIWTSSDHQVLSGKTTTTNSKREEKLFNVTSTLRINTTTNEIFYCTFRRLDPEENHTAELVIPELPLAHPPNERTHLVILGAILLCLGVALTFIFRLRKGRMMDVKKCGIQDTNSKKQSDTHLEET
Structure (SMILES),IC50 (PD-1/PD-L1),EC50 (PD-1/PD-L1 interaction),AC50 (PD-L1)
COc1nc(O[C@H]2CCc3c(-c4cccc(-c5ccc(CNC[C@@H]6CCC(=O)N6)cc5)c4Cl)cccc32)c(Cl)cc1CN[C@@H]1CCC[C@@H]1O [Example 717],0.572 nM,484 nM,16.2 nM
"Cc1c(COc2cc(OCc3cncc(C#N)c3)c(CNCC3(O)CC3)cc2Cl)cccc1-c1cccc(-c2ccc(OCCNCCO)cc2)c1C [Example 391, 5-((4-chloro-2-((((1-hydroxycyclopropyl)methyl)amino)methyl)-5-((4″-(2-((2-hydroxyethyl)amino)ethoxy)-2,2′-dimethyl-[1,1′:3′,1″-terphenyl]-3-yl)methoxy)phenoxy)methyl)nicotinonitrile]",1.42 nM,305 nM,243 nM
COc1nc(O[C@H]2CCc3c(-c4cccc(-c5ccc(C6=N[C@H](C)CN6)c(OC)n5)c4Cl)cccc32)ccc1CN[C@@](C)(CO)C(=O)O [Example 778],0.113 nM,212 nM,259 nM
COc1nc(-c2cccc(-c3cccc4c3CC[C@@H]4Oc3nc(OCc4cc(C#N)cc(C#N)c4)c(CNC[C@@H](O)CC(=O)O)cc3Cl)c2Cl)ccc1CNC[C@@H]1CCC(=O)N1 [Example 797],0.064 nM,30 nM,41.4 nM
COc1nc(O[C@H]2CCc3c(-c4cccc(-c5ccc(CNC[C@@H]6CCC(=O)N6)cc5)c4Cl)cccc32)c(Cl)cc1CN1CCC[C@H]1C(=O)O [Example 725],0.064 nM,88 nM,14.3 nM
Cc1c(COc2cc(OCc3cncc(C#N)c3)c(CN3CC[C@@H](O)C3)cc2Cl)cccc1-c1cccc(-c2ccc(CN3CC(CC(=O)O)C3)cc2)c1C [Example 582],1.3 nM,147 nM,347 nM
COc1nc(-c2cccc(-c3cccc(COc4nc(OC)c(CNC[C@H]5CCC(=O)N5)cc4Cl)c3Cl)c2Cl)ccc1CN1CC2(CCC(=O)N2)C1 [Example 432],1.52 nM,289 nM,539 nM
CC(C)(NCc1cc(Cl)c(O[C@H]2CCc3c(-c4cccc(-c5ccc(OCCN6CC[C@@H](O)C6)cc5)c4Cl)cccc32)nc1OCc1cncc(S(C)(=O)=O)c1)C(=O)O [Example 665],0.064 nM,150 nM,16.5 nM
"Cc1c(COc2cc(OCc3cncc(C#N)c3)c(CNC[C@@H](O)CC(=O)O)cc2Cl)cccc1-c1cccc(OCc2ccc(CNC[C@@H](O)CC(=O)O)cn2)c1C [Example 392, (S)-4-(((6-(((3′-((4-((((S)-3-carboxy-2-hydroxypropyl)amino)methyl)-2-chloro-5-((5-cyanopyridin-3-yl)methoxy)phenoxy)methyl)-2,2′-dimethyl-[1,1′-biphenyl]-3-yl)oxy)methyl)pyridin-3-yl)methyl)amino)-3-hydroxybutanoic acid]",0.051 nM,351 nM,232 nM
CS(=O)(=O)c1cncc(COc2nc(O[C@H]3CCc4c(-c5cccc6c5CC[C@@H]6Oc5nc(OCc6cncc(S(C)(=O)=O)c6)c(CN6CC[C@@H](O)C6)cc5Cl)cccc43)c(Cl)cc2CN2CC[C@@H](O)C2)c1 [Example 689],0.064 nM,139 nM,114 nM
COc1nc(O[C@H]2CCc3c(-c4cccc(-c5ccc(CNC[C@@H]6CCC(=O)N6)cc5)c4Cl)cccc32)c(Cl)cc1CN1CC2(CCC(=O)N2)C1 [Example 729],0.935 nM,652 nM,49 nM
C[C@@](CO)(NCc1cc(Br)c(O[C@H]2CCc3c(-c4cccc(-c5ccc(OCCNCCO)cc5)c4Cl)cccc32)nc1OCc1cncc(C#N)c1)C(=O)O [Example 663],0.064 nM,118 nM,6.56 nM
"Cc1c(COc2cc(OCc3cncc(C#N)c3)c(CNCCO)cc2Cl)cccc1-c1cccc(-c2ccc3c(c2)CCC3N2CC[C@H](O)C2)c1C (stereo partly drawn) [Example 373, 5-((4-chloro-2-(((2-hydroxyethyl)amino)methyl)-5-((3′-(1-((S)-3-hydroxypyrrolidin-1-yl)-2,3-dihydro-1H-inden-5-yl)-2,2′-dimethyl-[1,1′-biphenyl]-3-yl)methoxy)phenoxy)methyl)nicotinonitrile]",2.59 nM,339 nM,168 nM

# The next lines start with the values.
IC50 (PD-1/PD-L1),EC50 (PD-1/PD-L1 interaction),AC50 (PD-L1),Structure (SMILES)
1.57 nM,408 nM,174 nM,"Cc1c(COc2cc(OCc3cncc(C#N)c3)c(CNCCO)cc2Cl)cccc1-c1cccc(-c2ccc(CNCCO)cc2)c1CF [Example 365, 5-((4-chloro-5-((2′-(fluoromethyl)-4″-(((2-hydroxyethyl)amino)methyl)-2-methyl-[1,1′:3′,1″-terphenyl]-3-yl)methoxy)-2-(((2-hydroxyethyl)amino)methyl)phenoxy)methyl)nicotinonitrile]"
0.142 nM,146 nM,241 nM,"Cc1c(COc2nc(OC[C@@H]3CCC(=O)N3)c(CNC[C@@H](O)CC(=O)O)cc2Br)cccc1-c1cccc(COc2nc(OC[C@@H]3CCC(=O)N3)c(CNC[C@@H](O)CC(=O)O)cc2Br)c1C [Example 328, (3S,3′S)-4,4′-((((((2,2′-dimethyl-[1,1′-biphenyl]-3,3′-diyl)bis(methylene))bis(oxy))bis(5-bromo-2-(((S)-5-oxopyrrolidin-2-yl)methoxy)pyridine-6,3-diyl))bis(methylene))bis(azanediyl))bis(3-hydroxybutanoic acid)]"
1.32 nM,275 nM,249 nM,COc1nc(OCc2cccc(-c3cccc(-c4ccc(CNC[C@@H]5CCC(=O)N5)cc4)c3Cl)c2Cl)c(Br)cc1CNC[C@@H]1CCC(=O)N1 [Example 431]
0.205 nM,144 nM,80 nM,Cc1c(COc2nc(OCc3cc(C#N)cc(C#N)c3)c(CNC(C)(CO)C(=O)O)cc2Cl)cccc1-c1cccc(-c2ccc(OCCNCCO)cc2)c1C (stereo not drawn) [Example 471]
6.25 nM,145 nM,73.2 nM,COc1nc(-c2cccc(-c3cccc4c3CC[C@@H]4Oc3nc(OC)c(CN[C@@H]4CCC[C@@H]4O)cc3Cl)c2Cl)ccc1CN[C@@H]1CCC[C@@H]1O [Example 646]
0.064 nM,79 nM,16.5 nM,"CC(C)(NCc1cc(Cl)c(OCc2cccc(-c3cccc(-c4ccc(OCCNCCO)cc4)c3Cl)c2Cl)nc1OCc1cncc(S(C)(=O)=O)c1)C(=O)O [Example 304, 2-(((5-chloro-6-((2,2′-dichloro-4″-(2-((2-hydroxyethyl)amino)ethoxy)-[1,1′:3′,1″-terphenyl]-3-yl)methoxy)-2-((5-(methylsulfonyl)pyridin-3-yl)methoxy)pyridin-3-yl)methyl)amino)-2-methylpropanoic acid]"
0.795 nM,197 nM,156 nM,COc1nc(O[C@H]2CCc3c(-c4cccc(-c5ccc(CNC[C@@H]6CCC(=O)N6)c(OC(F)F)c5)c4Cl)cccc32)c(Cl)cc1CNC[C@@H]1CCC(=O)N1 [Example 657]
2.44 nM,≥ 50000 nM,480 nM,COc1cc(-c2cccc(-c3cccc(-c4ccc(CNCCO)c(OC)c4)c3C)c2C)ccc1CNCCO [Example 627]
0.064 nM,58 nM,17.9 nM,COc1nc(O[C@H]2CCc3c(-c4cccc(-c5ccc(C6=NCCN6)c(OC)n5)c4Cl)cccc32)c(Br)cc1CN[C@@](C)(CO)C(=O)O [Example 789]
